For one series, the target named is L-type calcium channel (Homo sapiens, UniProt O60840+Q01668+Q13698+Q13936). Put plainly: Inhibition of Calcium channel L-type (unknown origin) at 10 uM by CEREP analysis relative to control. Format: protein assay.
Series [1] can be described thus: Kinetic solubility of compound at pH 2. Format: physicochemical. Particulars: buffer, read-out: Kinetic_solubility.
Series [2] in a line: Kinetic solubility of compound at pH 4.5. In kind it is physicochemical. Particulars: buffer, read-out: Kinetic_solubility.
Series [3] has as its target 5-hydroxytryptamine receptor 2B (Homo sapiens) (UniProt P41595). Nature of the series: Inhibition of 5-HT2B receptor (unknown origin) at 10 uM by CEREP analysis relative to control.
The target in series [4] is T1, Muscarinic acetylcholine receptor M2 (Homo sapiens) (UniProt P08172).
T1 sequence (whole entry): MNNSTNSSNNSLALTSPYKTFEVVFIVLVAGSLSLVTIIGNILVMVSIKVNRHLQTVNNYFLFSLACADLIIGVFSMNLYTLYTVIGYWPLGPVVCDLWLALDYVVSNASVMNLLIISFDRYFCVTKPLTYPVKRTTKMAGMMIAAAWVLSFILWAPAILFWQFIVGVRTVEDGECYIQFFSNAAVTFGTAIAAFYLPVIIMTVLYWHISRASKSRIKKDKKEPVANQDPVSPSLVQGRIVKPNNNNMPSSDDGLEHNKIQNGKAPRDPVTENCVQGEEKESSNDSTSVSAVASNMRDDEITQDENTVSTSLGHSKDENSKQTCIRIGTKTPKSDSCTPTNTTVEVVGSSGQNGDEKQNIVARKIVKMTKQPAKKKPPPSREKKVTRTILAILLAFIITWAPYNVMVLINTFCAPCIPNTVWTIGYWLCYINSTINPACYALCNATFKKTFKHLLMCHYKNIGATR
Put plainly: Inhibition of muscarinic M2 receptor (unknown origin) at 10 uM by CEREP analysis relative to control.

A further series has as its target hERG (Homo sapiens, UniProt Q12809). Nature of the series: Inhibition of hERG at 10 uM by CEREP analysis relative to control. In kind it is toxicity.
Series [5] is described as follows: Oral bioavailability in mouse. In kind it is ADME, organism-based. Particulars: in vivo.
The next series is described as follows: cells. Particulars: Mus musculus, BaF3/TRP-Met, 72 h.
In series [6] the target is T2, Alpha-2A adrenergic receptor (Homo sapiens) (UniProt P08913).
T2 sequence (whole entry): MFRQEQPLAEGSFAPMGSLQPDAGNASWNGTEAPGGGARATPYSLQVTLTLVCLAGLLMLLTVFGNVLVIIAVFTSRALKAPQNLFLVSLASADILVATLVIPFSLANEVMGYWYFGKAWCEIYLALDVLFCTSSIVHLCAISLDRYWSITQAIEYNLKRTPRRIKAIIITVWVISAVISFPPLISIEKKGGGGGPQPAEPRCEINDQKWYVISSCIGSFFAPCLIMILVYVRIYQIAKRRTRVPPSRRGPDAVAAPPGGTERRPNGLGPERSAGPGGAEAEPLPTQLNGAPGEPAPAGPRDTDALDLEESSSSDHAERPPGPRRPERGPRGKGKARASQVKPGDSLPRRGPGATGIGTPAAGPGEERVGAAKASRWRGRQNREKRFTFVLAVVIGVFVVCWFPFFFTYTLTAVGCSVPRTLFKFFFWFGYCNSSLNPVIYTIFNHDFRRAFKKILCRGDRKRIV
Put plainly: Inhibition of alpha 2A adrenergic receptor (unknown origin) at 10 uM by CEREP analysis relative to control.

Series [7] has as its target Sodium-dependent serotonin transporter (Homo sapiens) (UniProt P31645). Nature of the series: Inhibition of SERT (unknown origin) at 10 uM by CEREP analysis relative to control.
Series [8] can be described thus: Clearance in mouse. Format: ADME, organism-based. The note with it: in vivo.
The target of series [9] is 5-hydroxytryptamine receptor 1B (Homo sapiens) (UniProt P28222). Nature of the series: Inhibition of 5-HT1B receptor (unknown origin) at 10 uM by CEREP analysis relative to control.
Sequence of 5-hydroxytryptamine receptor 1B (Homo sapiens) (P28222 whole entry): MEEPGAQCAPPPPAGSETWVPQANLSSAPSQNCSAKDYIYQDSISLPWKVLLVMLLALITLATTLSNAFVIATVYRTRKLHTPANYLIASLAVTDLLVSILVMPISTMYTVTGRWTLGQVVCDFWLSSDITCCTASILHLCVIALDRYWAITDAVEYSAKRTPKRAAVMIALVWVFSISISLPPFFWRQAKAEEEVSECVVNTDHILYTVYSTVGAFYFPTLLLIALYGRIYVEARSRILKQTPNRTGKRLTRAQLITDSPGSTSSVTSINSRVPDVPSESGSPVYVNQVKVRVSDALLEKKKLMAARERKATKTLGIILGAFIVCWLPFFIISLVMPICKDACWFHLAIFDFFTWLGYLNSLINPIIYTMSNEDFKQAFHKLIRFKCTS
Series [10] concerns the target cGMP-inhibited 3',5'-cyclic phosphodiesterase 3A (Homo sapiens) (UniProt Q14432). Put plainly: Inhibition of PDE3A (unknown origin) at 10 uM by CEREP analysis relative to control.
Series [11] has as its target 3',5'-cyclic-AMP phosphodiesterase 4D (Homo sapiens) (UniProt Q08499). Nature of the series: Inhibition of PDE4D2 (unknown origin) at 10 uM by CEREP analysis relative to control.
For a further series, the species on record is Homo sapiens. Put plainly: Inhibition of sodium channel site 2 (unknown origin) at 10 uM by CEREP analysis relative to control.
Series [12] relates to BaF3. Nature of the series: cells. The note with it: Mus musculus, BaF3, 72 h.
A short description of series [13]: Oral bioavailability in rat. In kind it is ADME, organism-based. The note with it: in vivo.
Series [14] deals with BaF3. Nature of the series: cells. The note with it: Mus musculus, BaF3, 72 h. This is another data set of the same source.
Series [15] relates to BaF3. Nature of the series: cells. Particulars: Mus musculus, BaF3, 72 h. The source holds these as a separate data set.
Series [16] concerns BaF3. Put plainly: cells. Particulars: Mus musculus, BaF3, 72 h. The source holds these as a separate data set.
For series [17], the system named is BaF3. Nature of the series: cells. The note with it: Mus musculus, BaF3, 72 h. The source holds these as a separate data set.
Series [18] concerns BaF3. Nature of the series: cells. The note with it: Mus musculus, BaF3, 72 h. This is another data set of the same source.
Series [19] deals with Tyrosine-protein kinase receptor UFO (Homo sapiens, UniProt P30530). Put plainly: Inhibition of AXL (unknown origin) by fluorescence-based microfluidic mobility shift assay.
Series [20] deals with BaF3. Nature of the series: cells. Particulars: Mus musculus, BaF3, 72 h. The source holds these as a separate data set.
Series [21] relates to BaF3. Put plainly: cells. The note with it: Mus musculus, BaF3, 72 h. This is another data set of the same source.
Series [22] has as its system BaF3. Nature of the series: cells. Particulars: Mus musculus, BaF3, 72 h. This is another data set of the same source.
In series [23] the test system is BaF3. Put plainly: cells. Particulars: Mus musculus, BaF3, 72 h. The source holds these as a separate data set.
The subject of series [24] is BaF3. Put plainly: cells. Particulars: Mus musculus, BaF3, 72 h. This is another data set of the same source.
Series [25] has as its system BaF3. Nature of the series: cells. The note with it: Mus musculus, BaF3, 72 h. This is another data set of the same source.
Series [26] addresses Tyrosine-protein kinase Mer (Homo sapiens, UniProt Q12866). Put plainly: Inhibition of MERTK (unknown origin) by fluorescence-based microfluidic mobility shift assay.
For series [27], the system named is BaF3. Nature of the series: cells. The note with it: Mus musculus, BaF3, 72 h. This is another data set of the same source.
Series [28] deals with Vascular endothelial growth factor receptor 2 (Homo sapiens, UniProt P35968). Put plainly: Inhibition of KDR (unknown origin) by fluorescence-based microfluidic mobility shift assay.
In series [29] the test system is BaF3. Nature of the series: cells. The note with it: Mus musculus, BaF3, 72 h. The source holds these as a separate data set.

In brackets after ≈: the same amount, converted by molar mass. A value given as a limit tells only on which side of the number the result lay.

We go through 4 molecules from ChEMBL document CHEMBL6182925 (J Med Chem, 2025).

What is called inhibition is the relative decrease from the control value, in per cent. Broadly, the bioavailability is dose-corrected exposure relative to a reference, in per cent. Read a high bioavailability as much systemic uptake. The term EC50 denotes the concentration at which the effect is half-maximal. A low value points to a more potent agent. One may read the clearance as a measure of how efficiently the substance is removed, as volume per time. A high value points to efficient removal. The term IC50 denotes the concentration that inhibits the measured activity by half.

Sequence of 3',5'-cyclic-AMP phosphodiesterase 4D (Homo sapiens) (Q08499 whole entry): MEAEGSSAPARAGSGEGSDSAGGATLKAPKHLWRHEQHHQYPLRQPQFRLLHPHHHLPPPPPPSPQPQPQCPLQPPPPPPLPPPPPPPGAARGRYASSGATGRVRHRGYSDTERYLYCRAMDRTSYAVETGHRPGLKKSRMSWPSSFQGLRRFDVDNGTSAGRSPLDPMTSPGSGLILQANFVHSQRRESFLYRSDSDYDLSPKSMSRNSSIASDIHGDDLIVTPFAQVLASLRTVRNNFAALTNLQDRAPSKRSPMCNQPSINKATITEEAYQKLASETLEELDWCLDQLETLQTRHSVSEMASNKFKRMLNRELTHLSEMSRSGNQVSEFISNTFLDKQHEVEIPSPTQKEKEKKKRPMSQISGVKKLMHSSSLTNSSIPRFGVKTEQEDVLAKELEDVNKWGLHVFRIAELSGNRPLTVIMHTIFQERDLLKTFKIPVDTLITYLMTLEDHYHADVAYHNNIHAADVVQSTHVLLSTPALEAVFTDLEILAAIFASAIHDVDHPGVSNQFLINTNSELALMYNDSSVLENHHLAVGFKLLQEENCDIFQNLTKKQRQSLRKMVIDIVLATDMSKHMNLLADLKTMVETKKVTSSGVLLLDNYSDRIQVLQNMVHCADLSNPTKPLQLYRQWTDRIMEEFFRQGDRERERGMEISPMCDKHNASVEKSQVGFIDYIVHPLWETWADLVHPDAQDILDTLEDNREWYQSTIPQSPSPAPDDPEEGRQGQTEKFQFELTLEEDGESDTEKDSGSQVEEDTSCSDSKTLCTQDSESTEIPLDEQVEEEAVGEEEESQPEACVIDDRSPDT
Sequence of 5-hydroxytryptamine receptor 2B (Homo sapiens) (P41595 whole entry): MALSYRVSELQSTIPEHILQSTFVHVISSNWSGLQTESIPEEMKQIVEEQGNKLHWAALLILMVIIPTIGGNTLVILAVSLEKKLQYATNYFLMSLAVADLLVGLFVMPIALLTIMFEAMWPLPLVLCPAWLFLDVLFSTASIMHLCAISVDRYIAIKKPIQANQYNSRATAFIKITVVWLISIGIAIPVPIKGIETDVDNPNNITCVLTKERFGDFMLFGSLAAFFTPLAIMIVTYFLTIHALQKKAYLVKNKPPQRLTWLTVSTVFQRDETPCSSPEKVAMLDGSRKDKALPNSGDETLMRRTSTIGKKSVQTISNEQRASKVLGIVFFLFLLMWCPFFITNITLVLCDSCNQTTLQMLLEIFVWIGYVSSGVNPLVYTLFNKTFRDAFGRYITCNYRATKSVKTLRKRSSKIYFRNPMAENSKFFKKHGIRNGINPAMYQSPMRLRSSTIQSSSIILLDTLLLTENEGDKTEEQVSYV
Sequence of Sodium-dependent serotonin transporter (Homo sapiens) (P31645 whole entry, looked up): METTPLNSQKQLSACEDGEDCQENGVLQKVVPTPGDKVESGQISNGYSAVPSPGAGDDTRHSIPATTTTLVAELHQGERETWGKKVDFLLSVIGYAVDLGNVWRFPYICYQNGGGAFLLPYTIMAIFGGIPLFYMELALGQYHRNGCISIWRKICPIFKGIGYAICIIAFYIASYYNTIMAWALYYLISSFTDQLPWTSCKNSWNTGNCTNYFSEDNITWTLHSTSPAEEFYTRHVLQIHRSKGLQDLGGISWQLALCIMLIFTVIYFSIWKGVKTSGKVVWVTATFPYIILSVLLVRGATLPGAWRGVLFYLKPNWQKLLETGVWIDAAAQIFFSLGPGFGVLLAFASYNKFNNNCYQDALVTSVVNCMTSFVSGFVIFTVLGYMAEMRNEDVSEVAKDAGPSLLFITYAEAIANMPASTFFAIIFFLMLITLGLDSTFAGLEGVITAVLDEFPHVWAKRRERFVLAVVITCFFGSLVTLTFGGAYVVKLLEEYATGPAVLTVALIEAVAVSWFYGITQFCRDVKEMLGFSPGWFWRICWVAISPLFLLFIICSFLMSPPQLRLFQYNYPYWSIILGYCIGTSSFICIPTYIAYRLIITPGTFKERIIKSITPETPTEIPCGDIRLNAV
Sequence of hERG (Q12809 whole entry): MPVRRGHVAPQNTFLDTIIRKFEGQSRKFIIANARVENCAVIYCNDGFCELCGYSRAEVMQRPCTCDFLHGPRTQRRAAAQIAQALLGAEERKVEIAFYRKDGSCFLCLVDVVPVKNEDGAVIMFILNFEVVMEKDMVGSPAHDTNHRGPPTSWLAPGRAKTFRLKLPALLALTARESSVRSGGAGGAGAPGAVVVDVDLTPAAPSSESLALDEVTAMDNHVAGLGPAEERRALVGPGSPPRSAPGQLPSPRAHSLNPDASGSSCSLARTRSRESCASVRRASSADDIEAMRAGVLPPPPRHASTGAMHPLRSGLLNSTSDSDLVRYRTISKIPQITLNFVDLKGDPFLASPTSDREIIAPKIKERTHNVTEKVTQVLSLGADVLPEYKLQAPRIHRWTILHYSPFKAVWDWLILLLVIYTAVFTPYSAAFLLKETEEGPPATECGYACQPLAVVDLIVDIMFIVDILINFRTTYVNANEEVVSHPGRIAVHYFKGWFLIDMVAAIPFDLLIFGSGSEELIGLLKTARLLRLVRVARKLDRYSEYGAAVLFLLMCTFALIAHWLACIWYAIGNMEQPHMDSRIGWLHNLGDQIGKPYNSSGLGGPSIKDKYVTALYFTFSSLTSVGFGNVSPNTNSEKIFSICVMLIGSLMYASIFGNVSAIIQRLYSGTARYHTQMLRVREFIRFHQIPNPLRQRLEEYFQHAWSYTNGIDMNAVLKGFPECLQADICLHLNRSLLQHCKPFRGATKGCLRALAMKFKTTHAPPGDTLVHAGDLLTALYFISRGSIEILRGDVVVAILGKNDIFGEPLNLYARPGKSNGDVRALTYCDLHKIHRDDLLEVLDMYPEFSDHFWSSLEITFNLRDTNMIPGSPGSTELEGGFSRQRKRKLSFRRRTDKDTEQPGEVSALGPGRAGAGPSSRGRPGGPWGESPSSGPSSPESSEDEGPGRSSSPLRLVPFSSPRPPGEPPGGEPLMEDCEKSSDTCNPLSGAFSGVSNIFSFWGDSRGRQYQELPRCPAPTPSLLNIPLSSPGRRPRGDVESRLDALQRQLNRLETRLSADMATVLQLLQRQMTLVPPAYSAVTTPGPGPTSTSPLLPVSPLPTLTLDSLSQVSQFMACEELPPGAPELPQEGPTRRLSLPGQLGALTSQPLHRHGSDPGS
Sequence of cGMP-inhibited 3',5'-cyclic phosphodiesterase 3A (Homo sapiens) (Q14432 whole entry): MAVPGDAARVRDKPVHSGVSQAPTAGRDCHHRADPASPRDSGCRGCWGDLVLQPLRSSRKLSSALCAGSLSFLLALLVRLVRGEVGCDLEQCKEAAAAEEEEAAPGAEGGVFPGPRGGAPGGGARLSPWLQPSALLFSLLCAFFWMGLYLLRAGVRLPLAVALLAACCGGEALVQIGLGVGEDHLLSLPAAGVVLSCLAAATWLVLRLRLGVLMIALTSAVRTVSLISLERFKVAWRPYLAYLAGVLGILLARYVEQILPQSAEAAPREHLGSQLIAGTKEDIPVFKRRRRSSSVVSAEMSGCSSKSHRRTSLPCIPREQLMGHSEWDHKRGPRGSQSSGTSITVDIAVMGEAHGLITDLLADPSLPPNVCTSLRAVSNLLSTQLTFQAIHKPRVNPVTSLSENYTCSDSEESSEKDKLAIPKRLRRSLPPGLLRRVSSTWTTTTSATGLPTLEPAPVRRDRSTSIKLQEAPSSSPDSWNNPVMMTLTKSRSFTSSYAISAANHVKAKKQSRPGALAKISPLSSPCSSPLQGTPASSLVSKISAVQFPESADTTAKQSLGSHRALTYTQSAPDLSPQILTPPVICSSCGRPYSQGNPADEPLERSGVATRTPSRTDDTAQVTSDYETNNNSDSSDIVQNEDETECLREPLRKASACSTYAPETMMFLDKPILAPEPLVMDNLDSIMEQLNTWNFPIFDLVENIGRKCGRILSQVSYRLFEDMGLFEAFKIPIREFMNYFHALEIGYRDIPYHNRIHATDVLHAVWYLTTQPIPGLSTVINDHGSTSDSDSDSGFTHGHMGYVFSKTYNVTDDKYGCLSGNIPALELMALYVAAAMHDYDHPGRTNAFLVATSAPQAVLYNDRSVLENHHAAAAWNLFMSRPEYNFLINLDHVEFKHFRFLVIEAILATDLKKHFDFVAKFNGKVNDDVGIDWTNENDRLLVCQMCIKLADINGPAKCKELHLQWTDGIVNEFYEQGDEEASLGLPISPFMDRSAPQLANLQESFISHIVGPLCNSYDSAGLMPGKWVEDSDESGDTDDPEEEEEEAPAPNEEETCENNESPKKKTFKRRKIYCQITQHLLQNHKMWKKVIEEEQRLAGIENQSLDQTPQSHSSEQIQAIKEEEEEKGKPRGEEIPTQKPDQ

In the case of `CNCCOc1cc2nccc(Oc3c(F)cc(NC(=O)c4cnccc4OC)cc3F)c2cc1OC`, the inhibition at 10 µM was 41% on L-type calcium channel and 70% against hERG. For the same molecule, the solubility kinetic in [1] is 276 µM (≈ 141 µg/mL); in series [2], 208 µM (≈ 106 µg/mL). Further, the inhibition was 58% in series [3]; 3% in series [4]; 54% in series [6]; 101% in series [7]; 54% in series [9]; -2% in [10]. In addition, the values for the inhibition (in series [11]; in the series filed under Homo sapiens) were 11% and 89%, respectively. In addition, in series [5], the bioavailability is < 5%. Moreover, the EC50 in “cells” was determined as 59 nM; in the series on BaF3 [12], 41 nM. Moreover, the clearance in series [8] was determined as 43 mL/min/kg.

In the case of `COc1cc2c(Oc3c(F)cc(NC(=O)c4cnccc4OC4CC4)cc3F)ccnc2cc1OCCO`, the inhibition at 10 µM at L-type calcium channel is 50%; against hERG, 13%. Further, the solubility kinetic in series [1] stood at 312 µM (≈ 163 µg/mL); in series [2], 8.1 µM (≈ 4.24 µg/mL). Also, the inhibition in series [3] is 69%; in series [4] it was 81%; in series [6] it was -1%; in series [7] it was 4%; in series [9], 22%; in series [10] it was 99%. Besides, the inhibition in series [11] is 96%; in the series listed under Homo sapiens, 57%. Also, in series [5], the bioavailability is ~100%. Besides, the EC50 was determined as 18 nM in “cells” and 14 nM with BaF3 [12]. In addition, the clearance in series [8] was 5.4 mL/min/kg.

Regarding `COc1cc2c(Oc3c(F)cc(NC(=O)c4cnccc4OC)cc3F)ccnc2cc1OCCO`, the results for the inhibition at 10 µM on L-type calcium channel and at hERG were -3% and 3%, respectively. In addition, the solubility kinetic in series [1] stood at 315 µM (≈ 157 µg/mL); in series [2] it was 11 µM (≈ 5.47 µg/mL). Moreover, the inhibition in series [3] is 18%; in series [4], 12%; in series [6], 8%; in series [7] it was 7%; in series [9], -8%; in [10], 98%. Further, the results for the inhibition (in [11]; in the series listed under Homo sapiens) were 90% and 30%, respectively. In addition, the bioavailability in [5] and in series [13] was ~100% throughout. Also, the 50% effective concentration (EC50) in “cells” is 36 nM; in the series with BaF3 [12], 31 nM.

On to `Cc1ccc(C(=O)Nc2ccc(Oc3cc4cnn(C)c4cc3-c3cn[nH]c3)c(F)c2)c(=O)n1-c1ccc(F)cc1` [MERESTINIB], for which the solubility kinetic in [1] turned out to be 0.4 µM (≈ 0.221 µg/mL); in series [2], 0.08 µM (≈ 0.0442 µg/mL). Further, the 50% effective concentration (EC50) in the series on BaF3 [14] came to 249 nM; with BaF3 [15], 21 nM; with BaF3 [16], 203 nM; in “cells”, 25 nM; with BaF3 [17] it was 255 nM; with BaF3 [18], 23 nM. In addition, the EC50 was determined as 511 nM in the series with BaF3 [20]; 26 nM in the series on BaF3 [21]; 7.8 nM in the series with BaF3 [22]; 64 nM in the series on BaF3 [23]; 129 nM in the series on BaF3 [24]; 18 nM with BaF3 [25]. The concentration for a half-maximal effect (EC50) was 837 nM in the series with BaF3 [27], 116 nM in the series with BaF3 [12] and 91 nM in the series on BaF3 [29]. The results for the IC50 in series [19], in series [26] and in series [28] were 0.5 nM, 0.5 nM and 341 nM, respectively.
